Laboratory results published in the supplement of paper PMC10331698.
± gives the standard deviation of the averaged measurements.

Assays:
Assay in all cases: level (log10 ratio to DMSO vehicle control); higher = higher biomarker level / cell amount than vehicle control
Conditions in all cases: in DMSO
[1] = compound: FC(F)(F)C(F)(F)C(F)(F)CC1CO1 [1H,1H-Heptafluorobutyl epoxide]
Procedure: (§1)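 BioMAP Diversity Plus panel of 12 human primary cell co-culture systems (3C, 4H, LPS, SAg, BT, BF4T, BE3C, CASM3C, HDF3CGF, KF3CT, MyoF, Mphg). Compounds were added 1 h before stimulation and left for 24 h (MyoF 48 h; BT 72 h for soluble read-outs or 6 d for IgG). Biomarkers were read by ELISA, cytotoxicity by SRB, PBMC viability and proliferation by Alamar Blue. Each well value was divided by the mean of 8 DMSO control wells on the same plate and log10 transformed; duplicate blinded samples were tested at 4 concentrations.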

Nonafluoropentanamide = compound: NC(=O)C(F)(F)C(F)(F)C(F)(F)C(F)(F)F [Nonafluoropentanamide]
Procedure: as §1

[2] = compound: NS(=O)(=O)C(F)(F)C(F)(F)C(F)(F)C(F)(F)C(F)(F)C(F)(F)F [Perfluorohexanesulfonamide]
Procedure: as §1

[3] = compound: O=S(=O)(Cl)C(F)(F)C(F)(F)C(F)(F)C(F)(F)C(F)(F)C(F)(F)C(F)(F)C(F)(F)F [Perfluoro-1-octanesulfonyl chloride]
Procedure: as §1

[4] = compound: O=S(=O)(F)C(F)(F)C(F)(F)C(F)(F)C(F)(F)C(F)(F)C(F)(F)C(F)(F)C(F)(F)F [Perfluorooctanesulfonyl fluoride]
Procedure: as §1

Hexafluoroamylene glycol = compound: OCC(F)(F)C(F)(F)C(F)(F)CO [Hexafluoroamylene glycol]
Procedure: as §1

Row | Test System | level (log10) ([1]; 6700 nM) | level (log10) ([1]; 20000 nM) | level (log10) ([1]; 60000 nM) | level (log10) (Nonafluoropentanamide; 6700 nM) | level (log10) (Nonafluoropentanamide; 20000 nM) | level (log10) (Nonafluoropentanamide; 60000 nM) | level (log10) ([2]; 6700 nM) | level (log10) ([2]; 20000 nM) | level (log10) ([2]; 60000 nM) | level (log10) ([3]; 6700 nM) | level (log10) ([3]; 20000 nM) | level (log10) ([3]; 60000 nM) | level (log10) ([4]; 6700 nM) | level (log10) ([4]; 20000 nM) | level (log10) ([4]; 60000 nM) | level (log10) (Hexafluoroamylene glycol; 6700 nM) | level (log10) (Hexafluoroamylene glycol; 20000 nM) | level (log10) (Hexafluoroamylene glycol; 60000 nM)
1 | MyoF:Decorin | -0.01 ± 0.014 | -0.009 ± 0.028 | 0.009 ± 0.035 | -0.0155 ± 0.0078 | 0.013 ± 0.0028 | -0.0045 ± 0.00071 | 0.0325 ± 0.076 | -0.0095 ± 0.1 | -0.03 ± 0.054 | -0.007 ± 0.0071 | 0.014 ± 0.033 | 0.09 ± 0.085 | 0.001 ± 0.011 | -0.013 ± 0.0042 | 0.016 ± 0.0057 | 0.001 ± 0.0042 | -0.01 ± 0.0042 | -0.015 ± 0.013
2 | MyoF:PAI-I | -0.005 ± 0.024 | -0.0105 ± 0.012 | 0 ± 0.016 | 0.006 ± 0.011 | 0.012 ± 0.0057 | 0.021 ± 0.0014 | 0.021 ± 0.016 | 0.0285 ± 0.021 | 0.0575 ± 0.0078 | -0.018 ± 0.016 | -0.0325 ± 0.016 | -0.0415 ± 0.013 | -0.0045 ± 0.0035 | -0.0015 ± 0.00071 | 0.006 ± 0.0099 | -0.0045 ± 0.0064 | -0.0105 ± 0.00071 | 0.01 ± 0.011
3 | MyoF:SRB | -0.006 ± 0.017 | -0.0045 ± 0.0021 | -0.002 ± 0.0057 | -0.003 ± 0.0085 | 0.009 ± 0.0085 | 0.005 ± 0.016 | -0.0185 ± 0.0035 | -0.054 ± 0.033 | -0.105 ± 0.0092 | 0.005 ± 0.014 | -0.009 | -0.0695 ± 0.0092 | -0.0155 ± 0.012 | -0.0245 ± 0.025 | 0.004 ± 0.0085 | 0.002 ± 0.0028 | -0.0045 ± 0.0035 | -0.002 ± 0.0057
4 | MyoF:TIMP-1 | -0.025 ± 0.018 | -0.023 ± 0.035 | -0.0125 ± 0.015 | -0.019 ± 0.0057 | 0.01 ± 0.035 | 0.001 ± 0.0085 | 0.019 ± 0.037 | 0.017 ± 0.045 | 0.021 ± 0.051 | -0.009 ± 0.044 | 0.0035 ± 0.043 | 0.148 ± 0.031 | 0.006 ± 0.0099 | 0.0035 ± 0.016 | 0.004 ± 0.0014 | -0.041 ± 0.05 | -0.0385 ± 0.06 | -0.039 ± 0.065
5 | MyoF:alpha-SM Actin | 0.012 ± 0.028 | -0.0095 ± 0.039 | 0.0125 ± 0.08 | -0.023 ± 0.027 | 0.0035 ± 0.04 | -0.0055 ± 0.063 | -0.003 ± 0.035 | 0.01 ± 0.033 | 0.004 ± 0.0057 | 0.0635 ± 0.0064 | 0.0665 ± 0.032 | -0.0065 ± 0.03 | -0.0005 ± 0.015 | 0.004 ± 0.018 | 0.0055 ± 0.021 | 0.024 ± 0.0085 | 0.0155 ± 0.013 | 0.025 ± 0.02
6 | MyoF:bFGF | -0.0035 ± 0.0035 | -0.002 ± 0.0028 | -0.0025 ± 0.015 | 0.0185 ± 0.023 | -0.003 ± 0.0099 | -0.007 ± 0.0057 | -0.0005 ± 0.00071 | -0.001 ± 0.0042 | -0.004 ± 0.023 | -0.007 ± 0.014 | -0.039 ± 0.0014 | -0.029 ± 0.034 | 0 ± 0.0014 | -0.0085 ± 0.00071 | 0.0095 ± 0.018 | -0.007 ± 0.017 | 0.006 ± 0.0085 | 0.0125 ± 0.019
7 | lMphg:CCL3/MIP-1alpha | -0.039 ± 0.0057 | -0.0135 ± 0.019 | 0.0135 ± 0.015 | 0.0025 ± 0.057 | -0.0015 ± 0.06 | 0 ± 0.045 | -0.0025 ± 0.00071 | -0.034 ± 0.044 | -0.0145 ± 0.0092 | 0.038 ± 0.03 | 0.004 ± 0.041 | 0.025 ± 0.018 | -0.0035 ± 0.053 | -0.004 ± 0.021 | -0.001 ± 0.017 | 0.03 ± 0.072 | -0.0125 ± 0.023 | 0.023 ± 0.034
8 | lMphg:CD62E/E-Selectin | -0.001 ± 0.059 | -0.005 ± 0.035 | 0.0525 ± 0.025 | -0.0115 ± 0.021 | -0.009 ± 0.03 | -0.011 ± 0.0028 | -0.02 ± 0.031 | -0.061 ± 0.0014 | -0.191 ± 0.013 | -0.0085 ± 0.0035 | -0.0165 ± 0.037 | 0.073 ± 0.014 | -0.0175 ± 0.013 | -0.0205 ± 0.0035 | -0.028 ± 0.014 | 0.002 ± 0.0057 | -0.0215 ± 0.0092 | 0.0055 ± 0.025
9 | lMphg:CD69 | -0.0285 ± 0.0064 | 0.005 ± 0.041 | 0.045 ± 0.081 | -0.005 | -0.021 ± 0.016 | -0.028 ± 0.018 | -0.02 ± 0.023 | -0.066 ± 0.02 | -0.169 ± 0.0085 | -0.054 ± 0.0099 | -0.0855 ± 0.033 | -0.111 ± 0.09 | -0.0075 ± 0.036 | -0.0125 ± 0.029 | -0.0175 ± 0.032 | -0.046 ± 0.027 | -0.0425 ± 0.025 | -0.027 ± 0.0071
10 | lMphg:CD106/VCAM-1 | 0.003 ± 0.011 | 0.012 ± 0.016 | 0.0095 ± 0.011 | -0.0255 ± 0.033 | 0.0065 ± 0.028 | -0.012 ± 0.028 | -0.0155 ± 0.025 | -0.012 ± 0.024 | -0.0805 ± 0.018 | 0.008 ± 0.0057 | 0.0135 ± 0.0078 | 0.0255 ± 0.00071 | 0.009 ± 0.017 | 0.0205 ± 0.012 | -0.0125 ± 0.0092 | -0.0185 ± 0.012 | -0.014 ± 0.0057 | -0.0175 ± 0.0092
11 | lMphg:CXCL8/IL-8 | -0.0265 ± 0.015 | -0.019 ± 0.021 | -0.0105 ± 0.029 | 0.012 ± 0.041 | 0.005 ± 0.02 | 0.027 ± 0.014 | 0.05 ± 0.014 | 0.083 ± 0.011 | 0.146 ± 0.0085 | -0.002 ± 0.017 | 0.0335 ± 0.00071 | 0.115 ± 0.061 | 0.0275 ± 0.0078 | 0.0145 ± 0.013 | 0.0335 ± 0.011 | 0.014 ± 0.021 | -0.0215 ± 0.016 | 0.0185 ± 0.06
12 | lMphg:M-CSF | 0.0065 ± 0.013 | -0.003 ± 0.011 | 0.003 ± 0.04 | 0.004 ± 0.0071 | 0.004 ± 0.017 | 0.018 ± 0.0014 | -0.051 ± 0.072 | -0.113 ± 0.037 | -0.119 ± 0.051 | -0.023 ± 0.042 | -0.012 ± 0.031 | 0.0215 ± 0.04 | -0.006 ± 0.03 | -0.03 ± 0.016 | -0.0335 ± 0.00071 | -0.008 ± 0.0057 | -0.009 ± 0.0071 | 0.006 ± 0.0014
13 | lMphg:SRB | -0.001 ± 0.0028 | 0.0025 ± 0.0035 | -0.002 ± 0.0085 | 0.003 ± 0.014 | 0.003 ± 0.0071 | -0.006 ± 0.0042 | -0.007 ± 0.0042 | -0.015 ± 0.0028 | -0.0645 ± 0.0064 | -0.004 ± 0.0014 | -0.004 ± 0.011 | -0.002 ± 0.0071 | 0.005 ± 0.0099 | -0.0085 ± 0.0092 | -0.0015 ± 0.0092 | 0.0055 ± 0.015 | 0.007 ± 0.02 | -0.002
14 | lMphg:sIL-10 | -0.0515 ± 0.022 | -0.047 ± 0.031 | -0.01 ± 0.011 | -0.0615 ± 0.044 | -0.0475 ± 0.00071 | 0.0505 ± 0.073 | 0 ± 0.0071 | -0.142 ± 0.017 | -0.5835 ± 0.00071 | 0.0345 ± 0.054 | -0.071 ± 0.1 | -0.341 ± 0.033 | -0.0605 ± 0.096 | -0.0755 ± 0.11 | 0.0005 ± 0.063 | -0.0035 ± 0.0092 | -0.0155 ± 0.016 | -0.0135 ± 0.0021
